# Results published in BindingDB's records for doi:10.1016/0960-894X(96)00211-9 (1996).
# Where a name gives a salt, the structure may show the parent alone.
# Assay: Inhibition of Endothelin-converting enzyme of guinea pig lung membrane
row,Compound,IC50
1,CC(C)CC(CP(O)(O)=C(Cc1ccc2ccccc2c1)NC(=O)[C@H](CCCCN)NS(C)(=O)=O)C(=O)N[C@@H](Cc1c[nH]c2ccccc12)C(=O)O (stereo partly drawn) [(S)-2-(2-{[1-((S)-6-Amino-2-methanesulfonylamino-hexanoylamino)-2-naphthalen-2-yl-ethyl]-hydroxy-phosphinoylmethyl}-4-methyl-pentanoylamino)-3-(1H-indol-3-yl)-propionic acid; Disodium salt],65 nM
2,CC(C)C(CP(O)(O)=C(Cc1ccccc1)NC(=O)[C@H](CCCCNC(=O)OCc1ccccc1)NS(C)(=O)=O)C(=O)N[C@@H](Cc1c[nH]c2ccccc12)C(=O)O (stereo partly drawn) [(S)-2-(2-{[1-((S)-6-Benzyloxycarbonylamino-2-methanesulfonylamino-hexanoylamino)-2-phenyl-ethyl]-hydroxy-phosphinoylmethyl}-3-methyl-butyrylamino)-3-(1H-indol-3-yl)-propionic acid; Disodium salt],390 nM
3,CC(C)CC(NC(=O)[C@H](CCCCNC(=O)OCc1ccccc1)NS(C)(=O)=O)=P(O)(O)CC(CC(C)C)C(=O)N[C@@H](Cc1c[nH]c2ccccc12)C(=O)O (stereo partly drawn) [(S)-2-(2-{[1-((S)-6-Benzyloxycarbonylamino-2-methanesulfonylamino-hexanoylamino)-3-methyl-butyl]-hydroxy-phosphinoylmethyl}-4-methyl-pentanoylamino)-3-(1H-indol-3-yl)-propionic acid; Disodium salt],40 nM
4,CC(C)CC(CP(O)(O)=C(Cc1ccccc1)NC(=O)[C@H](CC(C)C)NC(=O)OCc1ccccc1)C(=O)N[C@@H](Cc1c[nH]c2ccccc12)C(=O)O (stereo partly drawn) [(S)-2-(2-{[1-((S)-2-Benzyloxycarbonylamino-4-methyl-pentanoylamino)-2-phenyl-ethyl]-hydroxy-phosphinoylmethyl}-4-methyl-pentanoylamino)-3-(1H-indol-3-yl)-propionic acid; Disodium salt],160 nM
5,CC(C)C(CP(O)(O)=C(Cc1ccc2ccccc2c1)NC(=O)[C@H](CCCCNC(=O)OCc1ccccc1)NS(C)(=O)=O)C(=O)N[C@@H](Cc1c[nH]c2ccccc12)C(=O)O (stereo partly drawn) [(S)-2-(2-{[1-((S)-6-Benzyloxycarbonylamino-2-methanesulfonylamino-hexanoylamino)-2-naphthalen-2-yl-ethyl]-hydroxy-phosphinoylmethyl}-3-methyl-butyrylamino)-3-(1H-indol-3-yl)-propionic acid; Disodium salt],800 nM

# Assay: Compound was tested for inhibitory activity against Endothelin-converting enzyme isolated from guinea pig lung membrane.
row,Compound,IC50
1,CC(C)CC(CP(O)(O)=C(Cc1ccc2ccccc2c1)NC(=O)OCc1ccccc1)C(=O)N[C@@H](Cc1c[nH]c2ccccc12)C(=O)O (stereo partly drawn) [(S)-2-{2-[(1-Benzyloxycarbonylamino-2-naphthalen-2-yl-ethyl)-hydroxy-phosphinoylmethyl]-4-methyl-pentanoylamino}-3-(1H-indol-3-yl)-propionic acid; Disodium salt],3300 nM
